Reference: patent publication US5869492A, “Condensed thiazole derivatives, having 5-HT receptor affinity” (priority 1995, dated 1999)
Where a name gives a salt, the structure may show the parent alone. Read-outs that look alike come from different tables or passages of the source.

Experiments:
5-HT1A receptors = target: T1, 5-HT1A receptors (Rattus norvegicus, UniProt P19327); assay: [3H]8-OH-DPAT binding to 5-HT1A receptors in rat hippocampal membranes; settings: for Ki: [3H]8-OH-DPAT 2 nM, rat hippocampal membranes, mean of three determinations unless marked
T1 construct: Hippocampal tissue from the brains of male Sprague-Dawley rats; from tissue; host or cells: hippocampal membranes of male Sprague-Dawley rats (Charles River)
T1 sequence (P19327 1-422): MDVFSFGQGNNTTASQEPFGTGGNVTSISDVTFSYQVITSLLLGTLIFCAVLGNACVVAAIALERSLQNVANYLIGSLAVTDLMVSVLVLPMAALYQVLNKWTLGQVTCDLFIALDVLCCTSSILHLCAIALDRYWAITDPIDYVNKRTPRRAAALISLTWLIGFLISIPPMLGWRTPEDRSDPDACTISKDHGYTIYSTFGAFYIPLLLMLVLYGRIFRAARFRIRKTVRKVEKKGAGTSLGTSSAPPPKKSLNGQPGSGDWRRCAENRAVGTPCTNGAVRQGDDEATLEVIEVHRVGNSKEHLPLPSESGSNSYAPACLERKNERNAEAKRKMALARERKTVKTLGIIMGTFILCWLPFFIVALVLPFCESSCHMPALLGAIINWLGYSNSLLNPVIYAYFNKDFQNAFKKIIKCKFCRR
Experimental: Hippocampal tissue from the brains of male Sprague-Dawley rats (Charles River; weight range 150-250 g) was homogenised in ice-cold 50 mM Tris-HCl buffer (pH 7.7 when measured at 25° C., 1:40 w/v) and centrifuged at 30,000 g at 4° C. for 10 minutes. The pellet was rehomogenised in the same buffer, incubated at 37° C. for 10 minutes and centrifuged at 30,000 g at 4° C. for 10 minutes. The final pellet was resuspended in 50 mM Tris-HCI buffer (pH 7.7) containing 4 mM CaCl2, 0.1% L-ascorbic acid and 10 μM pargyline hydrochloride (equivalent to 6.25 mg wet weight of tissue/ml) and used immediately in the binding assay.
Aliquots (400 μl; equivalent to 2.5 mg wet weight of tissue/tube) of this membrane preparation were added to tubes containing [^3 H]8-hydroxy-2-(dipropylamino)tetralin ([^3 H]8-OH-DPAT; 50 μl; 2 nM) and distilled water (50 μl; total binding) or 5-HT (50 μl; 10 μM; non-specific binding) or test compound (50 μl; at a single concentration of 10^-6 M or at 10 concentrations ranging from 10^-11 -10^-3 M) and incubated at 25° C. for 30 minutes. The incubation was terminated by rapid filtration under vacuum through Skatron 11734 filters using a Skatron Cell Harvester. Filters were washed with ice-cold 50 mM Tris-HCl buffer, pH 7.7 (at 25° C., wash setting 9,9,0) and dried. The scored filter paper discs were punched out into vials, scintillation fluid added and radioactivity determined by liquid scintillation counting.
The percentage displacement of specific binding of the tritiated ligand was calculated for the single concentration (10^-6 M) of test compound. Displacement curves were then produced for those compounds which displaced ≥50% of specific binding of the tritiated ligand at 10^-6 M using a range of concentrations of the compound. The concentration which gave 50% inhibition of specific binding (IC50) was obtained from the curve. The inhibition coefficient Ki was then calculated using the formula [formula] in which [ligand] is the concentration of the tritiated ligand used and KD is the equilibrium dissociation constant for the ligand.

[1] = target: T2, 5-hydroxytryptamine (5-HT) reuptake sites (Rattus norvegicus, UniProt P31652); assay: [3H]5-HT uptake into rat frontal cortical synaptosomes; type: biochemical
T2 construct: Frontal cortical tissue from the brains of male Sprague-Dawley rats; from tissue; host or cells: crude frontal cortical synaptosomes of male Sprague-Dawley rats (Charles River)
Experimental: Frontal cortical tissue from the brains of male Sprague-Dawley rats (Charles River; weight range 150-250 g) was homogenised in ice-cold 0.32M sucrose (1:10 w/v) using a motor driven teflon pestle (difference in diameter between mortar and pestle 0.5 mm). Nuclei and cell debris were removed by centrifugation at 1,500 g at 4° C. for 10 minutes. The pellet (P1) was discarded and the supernatant centrifuged at 30,000 g at 4° C. for 10 minutes. The crude synaptosomal pellet (P2) was resuspended in Krebs-Henseleit buffer (equivalent to 8.3 mg wet weight of tissue/ml).
Crude synaptosomes were incubated in a shaking water bath at 37° C. for 15 minutes. Aliquots (150 μl; equivalent to 1.25 mg wet weight of tissue/tube) were then added to tubes containing 275 μl of Krebs-Henseleit buffer and 50 μl of Krebs-Henseleit buffer (total uptake) or 50 μl of test compound (at a single concentration of 10^-6 M or at 10 concentrations ranging from 10^-11 -10^-3 M) or 50 μl of zimeldine (10^-5 M; non-specific uptake). Uptake was initiated by the addition of 25 μl of freshly prepared [^3 H]5-HT (2 nM), followed by vortexing, and was continued for 5 minutes at 37° C. in the shaking water bath. Uptake was terminated by filtration under vacuum through Skatron 11734 filters using a Skatron cell harvester. Filters were then washed with 8 ml ice-cold saline. The scored filter paper discs were punched into vials, scintillation fluid added and radioactivity determined by liquid scintillation counting.
For both the 5-HT uptake and noradrenaline uptake tests, the percentage inhibition of specific uptake of the tritiated ligand was calculated for the single concentration (10^-6 M) of test compound. Inhibition curves were then produced for those compounds which inhibited ≥50% of specific uptake of the tritiated ligand at 10 ^-6 M using a range of concentrations of test compound. The concentration which gave 50% inhibition of specific uptake (IC50) was obtained from the curve. The inhibition constant (Ki) was then calculated using the formula [formula] in which [ligand] is the concentration of tritiated ligand used and Km is the affinity of the uptake site for the ligand.

[2] = target: T3, noradrenaline reuptake sites (Rattus norvegicus, UniProt Q63380); assay: [3H]noradrenaline uptake into rat frontal cortical synaptosomes; type: biochemical; settings: [3H]noradrenaline 10 nM, mean of three determinations unless marked (** one), read-out: NA uptake Ki
T3 construct: Frontal cortical tissue from the brains of male Sprague-Dawley rats; from tissue; host or cells: crude frontal cortical synaptosomes of male Sprague-Dawley rats (Charles River)
Experimental: Frontal cortical tissue from the brains of male Sprague-Dawley rats (Charles River; weight range 150-250 g) was homogenised in ice-cold 0.32M sucrose (1:10 w/v) using a motor driven teflon pestle (difference in diameter between mortar and pestle 0.5 mm). Nuclei and cell debris were removed by centrifugation at 1,500 g at 4° C. for 10 minutes. The pellet (P1) was discarded and the supernatant centrifuged at 30,000 g at 4° C. for 10 minutes. The crude synaptosomal pellet (P2) was resuspended in Krebs-Physiological buffer (equivalent to 16.7 mg wet weight of tissue/ml).
Crude synaptosomes were incubated in a shaking water bath at 37° C. for 15 minutes. Aliquots (150 μl; equivalent to 2.5 mg wet weight of tissue/tube) were then added to tubes containing 275 μl of Krebs-Physiological buffer and 50 μl of Krebs-Physiological buffer (total uptake) or 50 μl of test compound (at a single concentration of 10^-6 M or 10 concentrations ranging from 10^-11 -10^-3 M) or 50 μl of desipramine (10^-5 M; non-specific uptake). Uptake was initiated by the addition of 25 μl of freshly prepared [^3 H]noradrenaline (10 nM), followed by vortexing and was continued for 5 minutes at 37° C. in the shaking water bath. Uptake was terminated by filtration under vacuum through Whatman GF/B filters using a Brandell cell harvester. Filters were then washed with 8 ml ice-cold saline. The scored filter paper discs were placed into vials, scintillation fluid added and radioactivity determined by liquid scintillation counting.

[3] = [3H]5-HT 2 nM, rat frontal cortical synaptosomes, mean of three determinations unless marked (* two), read-out: 5-HT uptake Ki

T3 sequence (Q63380 1-617): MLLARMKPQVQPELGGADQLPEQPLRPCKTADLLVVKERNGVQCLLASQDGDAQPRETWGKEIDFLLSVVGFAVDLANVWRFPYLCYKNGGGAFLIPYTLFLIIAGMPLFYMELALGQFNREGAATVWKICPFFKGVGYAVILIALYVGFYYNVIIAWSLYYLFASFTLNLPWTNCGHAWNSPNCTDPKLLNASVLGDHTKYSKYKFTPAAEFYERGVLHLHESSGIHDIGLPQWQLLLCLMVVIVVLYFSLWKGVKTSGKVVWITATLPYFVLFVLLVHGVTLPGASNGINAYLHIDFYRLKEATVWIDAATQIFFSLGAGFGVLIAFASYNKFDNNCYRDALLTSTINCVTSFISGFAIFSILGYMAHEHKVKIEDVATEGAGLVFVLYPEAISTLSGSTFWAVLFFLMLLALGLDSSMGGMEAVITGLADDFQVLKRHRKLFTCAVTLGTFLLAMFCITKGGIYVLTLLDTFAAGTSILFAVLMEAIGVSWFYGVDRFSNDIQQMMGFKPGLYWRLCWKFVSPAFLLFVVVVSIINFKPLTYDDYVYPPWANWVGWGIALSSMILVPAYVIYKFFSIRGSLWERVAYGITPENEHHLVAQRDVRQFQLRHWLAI
T2 sequence (P31652 whole entry): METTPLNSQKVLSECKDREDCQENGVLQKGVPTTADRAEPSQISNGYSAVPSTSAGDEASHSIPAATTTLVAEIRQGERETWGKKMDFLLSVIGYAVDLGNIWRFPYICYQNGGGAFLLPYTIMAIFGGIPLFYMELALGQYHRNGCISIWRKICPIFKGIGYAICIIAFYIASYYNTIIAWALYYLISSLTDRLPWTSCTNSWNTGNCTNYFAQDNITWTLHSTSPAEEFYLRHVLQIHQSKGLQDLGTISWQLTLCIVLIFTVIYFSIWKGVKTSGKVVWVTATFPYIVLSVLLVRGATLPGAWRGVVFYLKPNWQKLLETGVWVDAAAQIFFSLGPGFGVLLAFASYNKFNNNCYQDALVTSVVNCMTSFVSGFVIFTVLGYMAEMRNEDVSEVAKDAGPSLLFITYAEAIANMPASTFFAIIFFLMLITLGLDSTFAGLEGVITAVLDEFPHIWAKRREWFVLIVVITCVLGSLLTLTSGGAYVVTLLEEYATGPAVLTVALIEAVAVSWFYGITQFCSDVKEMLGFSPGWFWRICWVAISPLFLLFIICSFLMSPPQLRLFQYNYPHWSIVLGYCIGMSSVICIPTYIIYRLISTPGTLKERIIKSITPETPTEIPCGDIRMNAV

| Structure (SMILES) | Ki (5-HT1A receptors) [nM] | Ki [1] [nM] | Ki [2] [nM] | inhibition at 1 µM (5-HT1A receptors; single concentration 10^-6 M, [3H]8-OH-DPAT, * mean of two determinations, read-out: 5-HT1A % displacement at 10^-6 M) [%] | Ki [1, 3] [nM] |
| --- | --- | --- | --- | --- | --- |
| Clc1ccc2scc(C3=CSC4=NCCN34)c2c1 [Example 5, 3-(5-chlorobenzo[b]thiophen-3-yl)-5,6-dihydroimidazo[2,1-b]thiazole monohydrobromide] | 40.7 | 8.7 | 13 | – | – |
| C1=C(c2coc3ccccc23)N2CCN=C2S1 [Example 3, 3-(benzo[b]furan-3-yl)-5,6-dihydroimidazo[2,1-b]thiazole monohydrobromide monohydrate] | 118 | 84 | 41 | – | – |
| Fc1ccc2scc(C3=CSC4=NCCN34)c2c1 [Example 7, 3-(5-fluorobenzo[b]thiophen-3-yl)-5,6-dihydroimidazo[2,1-b]thiazole monohydrobromide] | – | 36 | 5.4 | 66 | – |
| C1=C(c2csc3ccccc23)N2CCN=C2S1 [Example 1, 3-(benzo[b]thiophen-3-yl)-5,6-dihydroimidazo[2,1-b]thiazole monohydrobromide dihydrate] | 81 | 12.7 | 2.8 | – | – |
| C1=C(c2csc3ccccc23)N2CCCN=C2S1 [Example 2, 3-(benzo[b]thiophen-3-yl)-6,7-dihydro-5H-thiazolo[3,2-2a]pyrimidine] | 340 | – | 40 | – | 305 |
| C1=C(c2coc3ccccc23)N2CCCN=C2S1 [Example 4, 3-(benzo[b]furan-3-yl)-6,7-dihydro-5H-thiazolo[3,2-a]pyrimidine] | 321 | – | 116 | – | 881 |
| COc1ccc2scc(C3=CSC4=NCCN34)c2c1 [Example 6, 3-(5-methoxybenzo[b]thiophen-3-yl)-5,6-dihydroimidazo[2,1-b]thiazole monohydrobromide] | 37.5 | 22 | 51 | – | – |
| N#Cc1ccc2scc(C3=CSC4=NCCN34)c2c1 [Example 8, 3-(5,6-dihydroimidazo[2,1-b]thiazol-3-yl)benzo[b]thiophen-5-carbonitrile monohydrobromide] | 467 | 530 | – | – | – |
